Common to all, as to assay type: in vivo
What all share (conditions): 21 days, 0 = no damage, 100 = complete destruction

One assay concerns Amaranthus retroflexus. Nature of the assay: Greenhouse experiment, herbicidal activity, pre-emergence method. The procedure: (§1) The respective components I and B and/or C were formulated as 10% by weight strength emulsion concentrate and introduced to the spray liquor with the amount of solvent system used for applying the active compound. In the examples, the solvent used was water.
(§2) The test period extended over 21 days. During this time, the plants were tended, and their response to the treatments with active compound was evaluated.
(§3) The evaluation for the damage caused by the chemical compositions was carried out using a scale from 0 to 100%, compared to the untreated control plants. Here, 0 means no damage and 100 means complete destruction of the plants.
(§4) In the examples below, the value E which is to be expected if the activity of the individual compounds is just additive was calculated using the method of S. R. Colby (1967) “Calculating synergistic and antagonistic responses of herbicide combinations”, Weeds 15, p. 22 ff. E=X+Y−(X·Y/100) where
(§5) X=effect in percent using active compound I at an application rate a;
(§6) Y=effect in percent using active compound B at an application rate b;
(§7) E=expected effect (in %) of I+B at application rates a+b.
(§8) If the value […] in this manner is higher than the value E calculated according to Colby, a synergistic effect is present.

The test system of another assay is Echinocloa crus-galli. Kind of assay: Greenhouse experiment, herbicidal activity, post-emergence method.
Description: (§9) For the post-emergence treatment, the test plants were first grown to a height of 3 to 20 cm, depending on the plant habit, and only then treated. Here, the herbicidal compositions were suspended or emulsified in water as distribution medium and sprayed using finely distributing nozzles.
as §1, §2, §3, §4, §5, §6, §7, §8

The next assay concerns Alopecurus myosuroides. The assay is described as above.
Description: as §9, §1, §2, §3, §4, §5, §6, §7, §8

The mark [1] stands for this setting: application rate 0.98 g/ha of each active compound applied (mixture 0.98 + 0.98 g/ha).
The mark [2] stands for this setting: application rate 1.95 g/ha of each active compound applied (mixture 1.95 + 1.95 g/ha).

For the compound `Cc1nc(C(F)(F)F)ccc1C(=O)C1=C(O)C2CCC(C2)C1=O` (stereo not drawn) [B.1, 4-Hydroxy-3-{[2-methyl-6-(triflurmethyl)-3-pyridinyl]carbonyl}ci-cyclo[3.2.1]oct-3-en-2-one], the “Herbicidal activity against Amaranthus retroflexus, found” value was determined as 0% with Amaranthus retroflexus (setting [1]) and 20% in the assay with Amaranthus retroflexus (setting [2]). Moreover, the figures for the “Herbicidal activity against Echinocloa crus-galli, found” value in the assay on Echinocloa crus-galli (setting [1]) and in the assay with Echinocloa crus-galli (setting [2]) were 30% and 60%, respectively.

As to “4-Hydroxy-3-{[2-methoxyethoxy)methyl-6-(trifluormethyl)-3-pyridinyl]carbonyl}bicyclo[3.2.1]oct-3-en-2-one [B.2]”, the “Herbicidal activity against Alopecurus myosuroides, found” value in the assay with Alopecurus myosuroides (setting [2]) and in the assay on Alopecurus myosuroides (application rate 3.91 g/ha of each active compound applied (mixture 3.91 + 3.91 g/ha)) was 0% throughout.

Source of the values: patent US20060293187A1, “Herbicidal mixtures based on 3-phenyluracils” (BASF Aktiengesellschaft, priority 2003, published 2006).
